Entries after “also recorded” stand apart in the source; their conditions may differ. Like-named read-outs stand apart in the source and are kept apart here. Blank lines part the entries; values can stand above or below the molecule they belong to. Square brackets hold non-standard residues; d marks the D form. Peptide text beside a SMILES is read from it. Sar = CNCC(=O)O
Tests used:
MDCKI cells = experiment: Effect of inhibitors on ciprofloxacin bidirectional transport in MDCKI cells; conditions: 25 µM ciprofloxacin, inhibitor concentrations as in Figure 4 legend
[1] = cited from earlier work
[2] = Bidirectional transport study in LLC-PK1 cells; type: in vitro ADME; conditions: pig
in vitro = conditions: human, MDCK-MDR1
[3] = Bidirectional transport study in MDCKI cells; type: in vitro ADME, canine; conditions: dog, MDCK
MRP1 (L-MRP1 cells) = MRP1 (L-MRP1 cells) (Homo sapiens, UniProt P33527); experiment: Bidirectional transport study in L-MRP1 cells; type: in vitro ADME; conditions: LLC-PK1
MRP1 (L-MRP1 cells), sequence (P33527 whole entry): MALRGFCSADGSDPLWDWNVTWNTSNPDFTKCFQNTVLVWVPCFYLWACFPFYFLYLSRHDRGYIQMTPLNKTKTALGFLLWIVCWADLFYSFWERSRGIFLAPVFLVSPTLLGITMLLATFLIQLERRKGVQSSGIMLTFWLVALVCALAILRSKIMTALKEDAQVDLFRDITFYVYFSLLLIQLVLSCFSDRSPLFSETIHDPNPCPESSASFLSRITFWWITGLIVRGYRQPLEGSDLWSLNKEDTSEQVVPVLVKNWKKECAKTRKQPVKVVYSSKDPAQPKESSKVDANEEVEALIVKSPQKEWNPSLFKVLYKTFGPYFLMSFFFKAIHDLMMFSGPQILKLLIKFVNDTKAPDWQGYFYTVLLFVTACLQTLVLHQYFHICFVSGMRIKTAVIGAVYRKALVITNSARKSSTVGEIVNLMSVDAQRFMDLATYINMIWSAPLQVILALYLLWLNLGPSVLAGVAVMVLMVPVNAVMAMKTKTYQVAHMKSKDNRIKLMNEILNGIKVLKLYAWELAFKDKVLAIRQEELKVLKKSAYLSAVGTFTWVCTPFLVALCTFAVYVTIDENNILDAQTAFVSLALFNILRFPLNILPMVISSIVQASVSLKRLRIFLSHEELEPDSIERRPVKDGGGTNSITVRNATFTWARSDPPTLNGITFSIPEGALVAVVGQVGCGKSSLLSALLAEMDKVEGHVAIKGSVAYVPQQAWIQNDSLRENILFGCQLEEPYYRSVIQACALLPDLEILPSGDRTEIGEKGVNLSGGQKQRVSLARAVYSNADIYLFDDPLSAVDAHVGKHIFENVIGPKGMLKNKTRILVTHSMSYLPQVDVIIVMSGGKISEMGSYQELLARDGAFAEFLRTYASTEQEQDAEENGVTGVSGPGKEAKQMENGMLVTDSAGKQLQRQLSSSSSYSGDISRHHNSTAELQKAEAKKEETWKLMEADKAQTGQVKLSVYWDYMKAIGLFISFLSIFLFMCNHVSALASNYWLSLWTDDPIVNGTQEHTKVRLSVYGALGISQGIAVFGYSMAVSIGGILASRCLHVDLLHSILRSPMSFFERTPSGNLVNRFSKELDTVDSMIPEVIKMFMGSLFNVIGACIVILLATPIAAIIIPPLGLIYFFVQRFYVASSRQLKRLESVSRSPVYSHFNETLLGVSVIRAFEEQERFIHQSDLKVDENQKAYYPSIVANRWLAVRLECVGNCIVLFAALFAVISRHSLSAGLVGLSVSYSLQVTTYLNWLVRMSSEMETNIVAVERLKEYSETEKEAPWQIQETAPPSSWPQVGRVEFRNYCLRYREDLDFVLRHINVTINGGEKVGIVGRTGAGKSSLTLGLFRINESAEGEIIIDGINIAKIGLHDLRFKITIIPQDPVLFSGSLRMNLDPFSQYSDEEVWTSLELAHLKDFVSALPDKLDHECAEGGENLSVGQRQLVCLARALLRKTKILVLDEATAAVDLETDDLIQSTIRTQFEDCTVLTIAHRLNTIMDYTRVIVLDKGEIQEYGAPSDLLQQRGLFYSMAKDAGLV

P-gp (L-MDR1 cells) [4] = molecular target: T1, P-gp (L-MDR1 cells) (Homo sapiens, UniProt P08183); experiment: Bidirectional transport study in L-MDR1 cells; type: in vitro ADME; conditions: LLC-PK1
T1 sequence (P08183 whole entry): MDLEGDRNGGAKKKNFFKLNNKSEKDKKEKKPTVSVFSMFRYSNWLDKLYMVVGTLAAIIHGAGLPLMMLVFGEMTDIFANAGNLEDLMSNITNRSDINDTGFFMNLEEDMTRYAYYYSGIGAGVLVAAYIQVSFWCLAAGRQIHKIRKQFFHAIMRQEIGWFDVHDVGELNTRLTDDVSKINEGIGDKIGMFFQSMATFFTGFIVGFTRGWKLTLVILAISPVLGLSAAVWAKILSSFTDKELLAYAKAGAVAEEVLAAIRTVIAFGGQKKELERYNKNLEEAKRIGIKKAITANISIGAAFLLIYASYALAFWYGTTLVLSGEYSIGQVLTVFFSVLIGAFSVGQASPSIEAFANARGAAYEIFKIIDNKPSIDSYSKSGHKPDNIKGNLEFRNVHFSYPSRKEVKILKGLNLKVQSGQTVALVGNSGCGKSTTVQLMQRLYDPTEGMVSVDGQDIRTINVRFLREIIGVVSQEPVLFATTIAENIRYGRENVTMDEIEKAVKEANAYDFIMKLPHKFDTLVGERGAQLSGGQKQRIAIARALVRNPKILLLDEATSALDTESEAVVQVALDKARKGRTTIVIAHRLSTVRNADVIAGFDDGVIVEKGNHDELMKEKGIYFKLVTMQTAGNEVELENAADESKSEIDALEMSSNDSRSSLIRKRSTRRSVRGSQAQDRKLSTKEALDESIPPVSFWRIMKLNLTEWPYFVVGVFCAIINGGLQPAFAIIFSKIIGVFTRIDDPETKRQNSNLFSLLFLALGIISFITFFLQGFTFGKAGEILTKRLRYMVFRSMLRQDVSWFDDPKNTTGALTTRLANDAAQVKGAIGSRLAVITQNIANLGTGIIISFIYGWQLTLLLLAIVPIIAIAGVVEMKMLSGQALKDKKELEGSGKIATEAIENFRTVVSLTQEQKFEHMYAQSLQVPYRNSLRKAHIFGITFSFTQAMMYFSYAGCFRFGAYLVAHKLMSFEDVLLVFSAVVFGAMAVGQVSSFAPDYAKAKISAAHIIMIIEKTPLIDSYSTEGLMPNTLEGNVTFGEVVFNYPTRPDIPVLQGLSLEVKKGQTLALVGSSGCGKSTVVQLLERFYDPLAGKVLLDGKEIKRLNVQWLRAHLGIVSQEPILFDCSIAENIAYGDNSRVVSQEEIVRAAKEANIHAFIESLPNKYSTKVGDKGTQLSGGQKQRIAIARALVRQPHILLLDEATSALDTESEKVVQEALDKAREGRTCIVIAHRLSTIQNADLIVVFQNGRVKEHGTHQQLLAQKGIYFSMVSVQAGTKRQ

OAT3 = conditions: cited from earlier work
[5] = humans; cited from earlier work
P-gp (MDCKI-MDR1 cells) [6] = conditions: MDCKI-MDR1 and L-MDR1 cells; cited from earlier work
P-gp (MDCKII-MDR1 cells) = P-gp (MDCKII-MDR1 cells) (Homo sapiens, UniProt P08183); conditions: MDCKII vs MDCKII-MDR1; cited from earlier work
P-gp (MDCKII-MDR1 cells), sequence (P08183 whole entry): as above

P-gp (MDCKI-MDR1 cells) [7] = conditions: studies done in our lab
P-gp (L-MDR1 cells) [8] = molecular target: T1, P-gp (L-MDR1 cells); conditions: LLC-PK1 vs L-MDR1, cited from earlier work

Structure (SMILES): COc1cc2c(cc1OC)CN(CCc1ccc(NC(=O)c3cccc4c(=O)c5cccc(OC)c5[nH]c34)cc1)CC2 [GG918]
effect on ciprofloxacin transport in MDCKI cells (in words) (MDCKI cells): no significant effects

Structure (SMILES): O=C(O)c1cn(C2CC2)c2cc(N3CCNCC3)c(F)cc2c1=O [ciprofloxacin]
eliminated via intestinal secretion [1]: at least 10%

Structure (SMILES): CN(CC(=O)O)C(=O)CN [glycosarcosine] (H-Gly-[Sar]-OH)
effect on ciprofloxacin transport in MDCKI cells (in words) (MDCKI cells): no significant effects; also recorded: no effect

Papp at 1 h [2]: ~1.3 ×10⁻⁶ cm/s
Papp at 1 h (in vitro): ~0.5 ×10⁻⁶ cm/s
Papp at 1 h [3]: ~0.5 ×10⁻⁶ cm/s
Papp at 1 h (MRP1 (L-MRP1 cells)): ~3.5 ×10⁻⁶ cm/s
Papp at 1 h (P-gp (L-MDR1 cells) [4]): ~1.2 ×10⁻⁶ cm/s
Structure (SMILES): OC[C@@H](O)[C@@H](O)[C@H](O)[C@H](O)CO [mannitol]

Structure (SMILES): CCCN(CCC)S(=O)(=O)c1ccc(C(=O)O)cc1 [probenecid]
interaction with OAT3 (OAT3): inhibitor of OAT3
effect on ciprofloxacin renal secretion [5]: competitively inhibit

Structure (SMILES): C=C[C@H]1C[N@@]2CC[C@H]1C[C@@H]2[C@@H](O)c1ccnc2ccc(OC)cc12 [quinidine]
effect on ciprofloxacin transport in MDCKI cells (in words) (MDCKI cells): no significant effects

Structure (SMILES): COc1cc(Cc2cnc(N)nc2N)cc(OC)c1OC [trimethoprim]
P-gp substrate status from transport studies (P-gp (MDCKI-MDR1 cells) [6]): substrate of P-gp
difference in transport between MDCKII and MDCKII-MDR1 cells (P-gp (MDCKII-MDR1 cells)): no difference

P-gp substrate status from transport studies (P-gp (MDCKI-MDR1 cells) [7]): substrate of P-gp
Structure (SMILES): CC[C@]1(O)C[C@@H]2CN(CCc3c([nH]c4ccccc34)[C@@](C(=O)OC)(c3cc4c(cc3OC)N(C)[C@H]3[C@@](O)(C(=O)OC)[C@H](OC(C)=O)[C@]5(CC)C=CCN6CC[C@]43[C@@H]65)C2)C1 [vinblastine]
effect on ciprofloxacin transport in MDCKI cells (in words) (MDCKI cells): no significant effects
difference in transport between LLC-PK1 and L-MDR1 cells (P-gp (L-MDR1 cells) [8]): no difference
difference in transport between LLC-PK1 and L-MDR1 cells (P-gp (L-MDR1 cells) [8]; listed as Vinblastine): did not show differences
